Measurements taken from the supplement of paper PMC11061612.

What was measured:
[1] = tested on: OAW-28 (Ovarian Carcinoma); assay: combination Emax (second highest fraction inhibited in the dose matrix, 72 h); higher = more inhibition; extreme values may be limits of the assay
Outline: (§1)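 Cell lines grown in DMEM/F12 or RPMI with 10% FBS were plated in 1536-well plates and held 24 hours at 37°C, 5% CO2 before 72 hours of exposure to two-drug dose matrices, with DMSO typically at 0.2%. CellTiter-Glo 2.0 luminescence gave viability, which was converted to inhibition. Vehicle wells were set to 0 and blank wells to 1. Combination Emax is the second-highest inhibition in the matrix, and Bliss excess is the observed combination effect minus the expected EA + EB − EA·EB, where EA and EB are the single-agent effects.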

[2] = tested on: SNU-407 (Colorectal Carcinoma); assay: as above
Outline: as §1

## CS(=O)(=O)CCNCc1ccc(-c2ccc3ncnc(Nc4ccc(OCc5cccc(F)c5)c(Cl)c4)c3c2)o1 [Lapatinib] + NC1(c2ccc(-c3nc4ccn5c(=O)[nH]nc5c4cc3-c3ccccc3)cc2)CCC1 [MK-2206] (first compound max 10 µM, 7x7, partner max 10 µM)
[1]
  combination Emax: 0.898
[2]
  combination Emax: 0.808
